For orientation: EC50 means the concentration at which the effect is half-maximal. Broadly, the pEC50 is −log10 of the EC50, conventionally taken in molar units.

Each structure is given as a SMILES string. pEC50: −log10 of the molar value. Converted amounts (≈) assume the structure as drawn. “And” between values parts separate entries of the source, which are not always exact repeats. Equal entries are not always repeated. Where two headings read alike, the source gives them in different places.

The source of these data is publication PMC7244133, “Identification of potential dual -targets anti- toxoplasma gondii compounds through structure-based virtual screening and in-vitro studies” (PLoS ONE, 2020).

One experiment deals with Vero cells. The experiment is described as follows: Cytotoxicity effect on Vero cells (MTS-PMS assay). The following applies: Chlorocebus sabaeus, read-out: EC50 against Vero cells. It is filed as cell-based, African green monkey. On the procedure: Vero cells were harvested by trypsinization when it reached 80–90% confluence. A volume of 100 μl Vero cells (6 x 10^4 cells/ml) in GM was cultured in triplicate wells of a 96-well plate and incubated for 24 hours.
MTS solution was prepared (2 mg/ml) by dissolving the powder in PBS. Exposure to light was avoided during the preparation. PMS (0.92 mg/ml) was similarly prepared in PBS and both solutions were stored at -20 °C. A volume of 20 μl of MTS solution was added into each well and the cells were incubated for one hour in a CO2 incubator [23, 24]. The absorbance (abs) was then measured at 490 nm using a microplate reader (Thermo Scientific Multiskan®Spectrum, USA). The percentage of cell viability was calculated using the following formula [25, 26]. The graphs were plotted and analyses their statistical data using Prism 5.0 (GraphPad Software Inc., CA USA) (S1 Dataset and S3 Dataset).
%ofcellviability=Opticaldensity(OD)oftreatedcell/Opticaldensity(OD)ofuntreatedcell(cellonly)
A general note: Tetrazolium assays rely on reduction of a dye to a coloured formazan, in cell work by metabolically active cells.

Experiment [1] has as its system T. gondii tachyzoites RH strain. As to the kind of experiment: Treatment of T. gondii-infected Vero cells (MTS-PMS assay). The conditions noted are these: for pEC50 / EC50: Toxoplasma gondii, read-out: EC50 against T. gondii; for pEC50: molar value in brackets; for Selectivity Index (SI): Vero Cell (EC50)/T. gondii EC50. It is filed as cell-based, Toxoplasma gondii. On the procedure: Vero cells were harvested by trypsinization when it reached 80–90% confluence. A volume of 100 μl diluted Vero cells of (6 x 10^4 cells/ml) in GM was cultured in triplicate wells of a 96-well plate and incubated for 24 hours. Then, 100 μl of tachyzoites (3 x 10^5 /ml) in GM2 (comprising DMEM, 0.5% PS and 2% FBS) were added into the Vero cell-seeded wells. A volume of 100 ul the above medium was added to the negative control well and the plate was incubated for six hours. Subsequently, the wells were washed twice with WM to remove non-adherent parasites. A volume of 100 μl of GM2 was added and again incubated for 18 hours. […] The negative control well contained 100 μl Vero cells and PBS in control wells for NCI compounds.
The percent cell viability was proportional to the mortality of T. gondii. The graphs were plotted and analyses their statistical data using Prism 5.0 (GraphPad Software Inc., CA USA) (S2 Dataset and S4 Dataset). […] Selectivity refers to the mean of the EC50 value for Vero cells relative to the mean of the EC50 value of the T. gondii. A P value of less than 0.05 was considered statistically significant and all data points represent the mean of three independent experiments. SI (selectivity index) measures the strength of inhibition against the Vero cells and the T. gondii.
SelectivityIndex(SI)=VeroCell(EC50)/T.gondiiEC50

The mark [2] stands for this setting: T. gondii-infected Vero cells, 24 hours treatment, MTS-PMS.

`O=c1[nH]cc(F)c(=O)[nH]1` [5-Fluorouracil, 5-fluorouracil, reference compound]: the EC50 in the experiment on Vero cells (24 hours treatment, MTS-PMS) stood at 9.72 µg/mL (≈ 74.7 µM).
Consider `NCCN1CCNCC1` [NSC38968, 2-(piperazin-1-yl)ethan-1-amine], for which, in experiment [1] (setting [2]), the pEC50 is 4.43 and the EC50 was 4.82 µg/mL. The “Selectivity Index (SI)” value in experiment [1] is listed as 4.5. For the same molecule, in the experiment with Vero cells (24 hours treatment, MTS-PMS), the EC50 turned out to be 21.5 µg/mL (≈ 166 µM).
`CCOC1CCc2c(C)nc(N)nc2S1` (stereo not shown) [NSC77468, 7-ethoxy-4-methyl-6,7-dihydro-5H-thiopyrano[2,3-d]pyrimidin-2-amine]: in experiment [1] (setting [2]), the pEC50 is 5.07 and the EC50 stood at 1.92 µg/mL. Further, the “Selectivity Index (SI)” value in experiment [1] is 25. In addition, the EC50 in the experiment on Vero cells (24 hours treatment, MTS-PMS) came out at 47.8 µg/mL (≈ 212 µM).
For `NS(=O)(=O)c1ccc(Cl)cc1[N+](=O)[O-]` [NSC81213, 4-chloro-2-nitrobenzene-1-sulfonamide], in that order: 4.70, 4.75 µg/mL, 5.2 and 24.6 µg/mL (≈ 104 µM).
As to `C1CC2CCNC3CCNC(C1)N23` (stereo not shown) [NSC81462, dodecahydro-1,4,9b-triazaphenalene], the EC50 was 3.24 µg/mL and 17.8 µM in experiment [1] (Vero, 24 h); 39 µg/mL (≈ 215 µM) with Vero cells (24 h). The “Selectivity Index (SI)” value in experiment [1] worked out at 12.0.
As to `CC1=C(C(N)=O)S(=O)(=O)c2ccccc21` [NSC108972, 3-methyl-1,1-dioxo-1 H -1-benzothiophene-2-carboxamide], in experiment [1] (setting [2]), the pEC50 is 4.49 and the EC50 amounted to 7.17 µg/mL. Besides, in experiment [1], the “Selectivity Index (SI)” value turned out to be 3.9. For the same molecule, the EC50 in the experiment with Vero cells (24 hours treatment, MTS-PMS) is 28 µg/mL (≈ 126 µM).
For the molecule `COc1ccccc1N1C(=O)CC(Sc2cccc(N)c2)C1=O` (stereo not shown) [NSC153391, 3-[(3-aminophenyl)sulfanyl]-1-(2-methoxyphenyl)pyrrolidine-2,5-dione], in experiment [1] (setting [2]), the “EC50 against T. gondii” value is reported as “Inactive”. In addition, in the experiment with Vero cells (24 hours treatment, MTS-PMS), the EC50 was determined as 24.7 µg/mL (≈ 75.3 µM).
Turning to `Nc1ccc(C(=O)c2cccs2)cn1` [NSC343344, (6-aminopyridin-3-yl)(thiophen-2-yl)methanone], the “EC50 against T. gondii” value in experiment [1] (setting [2]) is “Inactive”. Also, the EC50 in the experiment with Vero cells (24 h) was determined as 29.6 µg/mL (≈ 145 µM).
For the molecule `Nc1cc(Cl)ccc1N1C(=O)CCC1=O` [NSC660301, 1-(2-amino-4-chlorophenyl)pyrrolidine-2,5-dione], in experiment [1] (setting [2]), the pEC50 is 4.82 and the EC50 stood at 3.43 µg/mL. In experiment [1], the “Selectivity Index (SI)” value came out at 6.5. The EC50 in the experiment on Vero cells (24 hours treatment, MTS-PMS) was 22.3 µg/mL (≈ 99.2 µM).
